# Data reported in ChEMBL document CHEMBL1201862, “PubChem BioAssay data set” (2004).
# The source made the active and inactive calls.
# Experiments:
# Vero [1] = experiment: cells; assay type: functional, cell-based; details: Chlorocebus sabaeus
# Vero [2] = experiment: cells; assay type: functional; details: Chlorocebus sabaeus
# [3] = Luminescence Cell-Based Dose Response HTS to Identify Activators of Luciferase Translation or Activity in H4 […] Cells. [Related pubchem assays: 1829 (Project Summary), 1814 (Primary HTS)]; assay type: functional
# [4] = Luminescence Cell-Based Dose Confirmation HTS to Identify Activators of 5'UTR Stem-Loop Driven Alpha-Synuclein mRNA Translation in H4 Neuroglioblastoma Cells. [Related pubchem assays: 1829 (Project Summary), 1814 (Primary HTS)]; assay type: functional
# Jurkat = experiment: blockers of NF-kB activation in T cells – Jurkat, luciferase reporter, luminescence, B- and T-cell, dose response (AID 489004); assay type: functional, cell-based; details: Homo sapiens;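 further: NF-kB luciferase reporter Jurkat cells stimulated with PMA plus ionomycin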
# [5] = biological target: T1, Heat shock factor protein 1 (Mus musculus, UniProt P38532); experiment: decrease of HSF1-responsive luciferase luminescence – cell-based, NIH3T3, dose retest, confirmation (AID 2382); assay type: functional;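 further: NIH3T3 fibroblasts with HSF1-driven luciferase reporter stressed by proteasome inhibitor MG132; luminescence from HSF1-driven luciferase expression after 8 hours of MG132 stress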
# T1 sequence (P38532 whole entry): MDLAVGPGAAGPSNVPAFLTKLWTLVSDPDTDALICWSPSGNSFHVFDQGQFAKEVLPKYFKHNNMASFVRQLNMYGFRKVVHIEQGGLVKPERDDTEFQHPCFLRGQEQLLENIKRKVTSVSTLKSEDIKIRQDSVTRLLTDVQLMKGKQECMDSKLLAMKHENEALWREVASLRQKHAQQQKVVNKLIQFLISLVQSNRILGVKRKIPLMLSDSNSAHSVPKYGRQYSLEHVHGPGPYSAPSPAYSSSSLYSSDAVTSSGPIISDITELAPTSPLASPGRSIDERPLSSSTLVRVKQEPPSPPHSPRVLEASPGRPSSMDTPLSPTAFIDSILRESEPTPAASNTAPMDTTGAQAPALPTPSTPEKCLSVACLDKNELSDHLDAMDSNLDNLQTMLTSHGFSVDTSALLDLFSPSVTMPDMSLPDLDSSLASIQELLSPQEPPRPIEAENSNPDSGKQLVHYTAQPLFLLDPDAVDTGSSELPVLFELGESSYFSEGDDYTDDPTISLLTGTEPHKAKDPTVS
# [6] = biological target: T2, Replicative DNA helicase DnaB (Mycobacterium tuberculosis, UniProt P9WMR3); experiment: DnaB intein splicing inhibitors, dose response, biochemical, cell-free fluorescence (AID 449749); assay type: functional
# T2 sequence (P9WMR3 whole entry): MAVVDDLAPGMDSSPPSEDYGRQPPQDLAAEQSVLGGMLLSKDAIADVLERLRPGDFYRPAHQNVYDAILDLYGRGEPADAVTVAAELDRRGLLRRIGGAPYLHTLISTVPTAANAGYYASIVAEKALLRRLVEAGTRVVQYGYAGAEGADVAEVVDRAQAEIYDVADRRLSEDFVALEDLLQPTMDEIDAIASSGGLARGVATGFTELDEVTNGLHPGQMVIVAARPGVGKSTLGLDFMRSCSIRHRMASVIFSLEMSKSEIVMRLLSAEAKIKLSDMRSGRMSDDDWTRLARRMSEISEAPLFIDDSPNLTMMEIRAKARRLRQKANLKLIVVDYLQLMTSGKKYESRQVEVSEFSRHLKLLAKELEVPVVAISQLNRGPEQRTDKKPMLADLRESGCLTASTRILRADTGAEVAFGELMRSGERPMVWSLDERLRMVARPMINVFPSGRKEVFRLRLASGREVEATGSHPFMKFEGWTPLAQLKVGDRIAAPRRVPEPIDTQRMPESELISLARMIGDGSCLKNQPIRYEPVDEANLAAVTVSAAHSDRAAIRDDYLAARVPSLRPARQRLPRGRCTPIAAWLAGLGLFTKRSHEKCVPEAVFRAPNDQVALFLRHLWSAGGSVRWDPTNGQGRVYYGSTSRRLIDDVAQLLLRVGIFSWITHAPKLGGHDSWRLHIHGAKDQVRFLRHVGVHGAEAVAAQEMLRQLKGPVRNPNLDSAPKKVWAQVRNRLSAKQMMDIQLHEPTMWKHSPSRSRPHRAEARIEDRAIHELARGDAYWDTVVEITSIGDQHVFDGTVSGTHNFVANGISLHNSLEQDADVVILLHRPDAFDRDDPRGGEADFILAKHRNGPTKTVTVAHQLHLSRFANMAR
# [7] = microbe, parasite or virus in culture; assay type: functional; details: Mycobacterium tuberculosis
# H4 = experiment: Luminescence Cell-Based Dose Response HTS to Identify Activators of 5'UTR Stem-Loop Driven Prion Protein mRNA Translation in H4 Neuroglioblastoma Cells. [Related pubchem assays: 1829 (Project Summary), 1814 (Primary HTS)]; assay type: functional; details: Homo sapiens
# Protein RecA = biological target: T3, Protein RecA (Mycobacterium tuberculosis, UniProt P9WHJ3); experiment: Fluorescence Cell-Free Homogeneous Dose Retest to Identify Inhibitors of RecA-Intein Splicing Activity. [Related pubchem assays (depositor defined):AID2097, AID2223, AID489010, AID492950]; assay type: functional
# T3 sequence (P9WHJ3 whole entry): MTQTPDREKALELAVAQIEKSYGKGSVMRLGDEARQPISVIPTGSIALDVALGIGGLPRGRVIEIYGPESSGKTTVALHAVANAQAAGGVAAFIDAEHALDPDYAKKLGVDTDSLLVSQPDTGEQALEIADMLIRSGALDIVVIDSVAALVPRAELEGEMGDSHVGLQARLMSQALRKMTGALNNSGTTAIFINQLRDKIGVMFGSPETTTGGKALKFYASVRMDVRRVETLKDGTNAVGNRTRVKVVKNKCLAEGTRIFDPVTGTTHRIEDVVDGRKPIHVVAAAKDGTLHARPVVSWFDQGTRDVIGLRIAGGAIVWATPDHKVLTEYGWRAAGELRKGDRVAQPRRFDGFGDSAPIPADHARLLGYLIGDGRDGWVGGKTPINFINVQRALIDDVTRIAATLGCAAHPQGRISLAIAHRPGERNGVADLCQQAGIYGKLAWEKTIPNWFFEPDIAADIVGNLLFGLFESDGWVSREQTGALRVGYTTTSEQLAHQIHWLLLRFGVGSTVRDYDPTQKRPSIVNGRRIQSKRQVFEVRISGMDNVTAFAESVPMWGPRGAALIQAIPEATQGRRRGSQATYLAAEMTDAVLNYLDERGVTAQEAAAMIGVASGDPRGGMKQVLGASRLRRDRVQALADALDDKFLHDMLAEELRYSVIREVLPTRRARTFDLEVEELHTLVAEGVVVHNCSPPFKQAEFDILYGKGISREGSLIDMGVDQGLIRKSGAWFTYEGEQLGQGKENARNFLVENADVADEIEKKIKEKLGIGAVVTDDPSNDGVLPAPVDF
# [8] = HEK-293T viability loss, compound-treated – cell-based, uHTS hits, cytotoxicity control for B/T-cell NF-kB inhibitor project, dose response (AID 489019); assay type: functional;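 further: IC50 reflects cytotoxicity as loss of cell viability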
# HEK293 [9] = experiment: cells; assay type: functional, cell-based; details: Homo sapiens
# [10] = biological target: T4, Nuclear receptor subfamily 0 group B member 1 (Homo sapiens, UniProt P51843); experiment: Luminescence-based cell-based high throughput dose response assay for inhibitors of the orphan nuclear receptor subfamily 0, group B, member 1 (DAX1; NR0B1). [Related pubchem assays (depositor defined):AID504766, AID504790]; assay type: functional
# T4 sequence (P51843 whole entry): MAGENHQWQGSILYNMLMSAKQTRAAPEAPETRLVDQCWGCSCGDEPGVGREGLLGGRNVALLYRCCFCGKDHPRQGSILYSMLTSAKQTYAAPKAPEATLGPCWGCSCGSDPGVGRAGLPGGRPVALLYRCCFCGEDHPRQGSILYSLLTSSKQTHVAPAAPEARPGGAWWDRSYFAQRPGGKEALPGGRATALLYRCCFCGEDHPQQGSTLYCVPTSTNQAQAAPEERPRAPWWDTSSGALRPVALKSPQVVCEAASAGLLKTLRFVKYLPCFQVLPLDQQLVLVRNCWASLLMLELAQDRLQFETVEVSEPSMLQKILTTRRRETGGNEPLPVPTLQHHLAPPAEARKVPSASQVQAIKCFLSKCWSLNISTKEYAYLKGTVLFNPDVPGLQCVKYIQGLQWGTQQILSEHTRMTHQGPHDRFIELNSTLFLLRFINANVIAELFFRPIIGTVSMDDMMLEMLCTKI
# [11] = biological target: T5, Type-1 angiotensin II receptor (Homo sapiens, UniProt P30556); experiment: antagonism of angiotensin II type 1 receptor – cell-based, uHTS hits, selectivity assay for APJ receptor antagonist project, dose response (AID 463214); assay type: functional;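 further: antagonist potency against angiotensin II stimulated AT1 response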
# T5 sequence (P30556 whole entry): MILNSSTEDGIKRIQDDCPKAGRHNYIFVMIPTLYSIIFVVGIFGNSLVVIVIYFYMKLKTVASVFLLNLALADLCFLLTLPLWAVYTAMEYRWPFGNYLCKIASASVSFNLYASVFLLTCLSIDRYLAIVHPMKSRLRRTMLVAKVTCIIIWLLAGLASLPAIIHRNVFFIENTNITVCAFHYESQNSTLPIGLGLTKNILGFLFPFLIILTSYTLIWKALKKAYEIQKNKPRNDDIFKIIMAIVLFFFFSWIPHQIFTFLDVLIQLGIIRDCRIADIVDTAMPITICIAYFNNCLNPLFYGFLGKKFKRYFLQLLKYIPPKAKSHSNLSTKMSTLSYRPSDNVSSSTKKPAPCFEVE
# Beta-galactosidase = Beta-galactosidase (Escherichia coli, UniProt Q8VNN2); experiment: PubChem AID 485352; assay type: functional
# [12] = reduction of Shn3 3'UTR-driven luciferase in osteoblasts – cell-based, Clone20 osteoblasts, firefly luciferase, cherry-picked, dose response (AID 624132); assay type: functional;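 further: firefly luciferase luminescence from reporter carrying the Shn3 3'UTR in osteoblasts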
# HEK293 [13] = experiment: EBV LMP1 TES2 canonical NF-kB signalling blockers – cell-based, HEK293, luciferase, cherry-pick, dose response (AID 588343); assay type: functional; details: Homo sapiens
# [14] = non-specific 3'UTR reporter inhibition in Clone20-Shn3RL – cell-based, Renilla luciferase, cherry-picked, counter-screen for Shn3 inhibitor project, dose response (AID 624133); assay type: functional
# [15] = loss of viability in HepG2 cells – cell-based, CellTiter-Glo, cherry-picked, cytotoxicity control for Shn3 inhibitor project, dose response (AID 624134); assay type: functional
# [16] = biological target: T6, High affinity choline transporter 1 (Homo sapiens, UniProt Q9GZV3); experiment: human choline transporter blockers, potency – cell-based, 5-point CRC, membrane potential dye, dose response (AID 504840); assay type: functional
# T6 sequence (Q9GZV3 whole entry): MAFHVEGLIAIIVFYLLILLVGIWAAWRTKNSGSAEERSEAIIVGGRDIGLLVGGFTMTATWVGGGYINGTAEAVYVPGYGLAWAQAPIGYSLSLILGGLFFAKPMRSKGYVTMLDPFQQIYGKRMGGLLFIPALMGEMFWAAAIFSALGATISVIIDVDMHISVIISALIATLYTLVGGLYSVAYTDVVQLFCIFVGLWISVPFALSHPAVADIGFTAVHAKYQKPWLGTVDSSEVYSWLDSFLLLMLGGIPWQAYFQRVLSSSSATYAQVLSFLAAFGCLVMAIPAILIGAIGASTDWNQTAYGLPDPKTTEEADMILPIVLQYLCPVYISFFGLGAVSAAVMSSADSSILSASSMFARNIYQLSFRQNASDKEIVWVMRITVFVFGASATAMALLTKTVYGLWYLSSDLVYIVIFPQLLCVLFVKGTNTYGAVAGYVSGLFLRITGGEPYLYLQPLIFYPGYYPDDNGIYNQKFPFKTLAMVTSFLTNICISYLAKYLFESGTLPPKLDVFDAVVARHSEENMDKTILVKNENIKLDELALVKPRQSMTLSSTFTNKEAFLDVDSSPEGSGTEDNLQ
# Sequence of Beta-galactosidase (Q8VNN2 whole entry): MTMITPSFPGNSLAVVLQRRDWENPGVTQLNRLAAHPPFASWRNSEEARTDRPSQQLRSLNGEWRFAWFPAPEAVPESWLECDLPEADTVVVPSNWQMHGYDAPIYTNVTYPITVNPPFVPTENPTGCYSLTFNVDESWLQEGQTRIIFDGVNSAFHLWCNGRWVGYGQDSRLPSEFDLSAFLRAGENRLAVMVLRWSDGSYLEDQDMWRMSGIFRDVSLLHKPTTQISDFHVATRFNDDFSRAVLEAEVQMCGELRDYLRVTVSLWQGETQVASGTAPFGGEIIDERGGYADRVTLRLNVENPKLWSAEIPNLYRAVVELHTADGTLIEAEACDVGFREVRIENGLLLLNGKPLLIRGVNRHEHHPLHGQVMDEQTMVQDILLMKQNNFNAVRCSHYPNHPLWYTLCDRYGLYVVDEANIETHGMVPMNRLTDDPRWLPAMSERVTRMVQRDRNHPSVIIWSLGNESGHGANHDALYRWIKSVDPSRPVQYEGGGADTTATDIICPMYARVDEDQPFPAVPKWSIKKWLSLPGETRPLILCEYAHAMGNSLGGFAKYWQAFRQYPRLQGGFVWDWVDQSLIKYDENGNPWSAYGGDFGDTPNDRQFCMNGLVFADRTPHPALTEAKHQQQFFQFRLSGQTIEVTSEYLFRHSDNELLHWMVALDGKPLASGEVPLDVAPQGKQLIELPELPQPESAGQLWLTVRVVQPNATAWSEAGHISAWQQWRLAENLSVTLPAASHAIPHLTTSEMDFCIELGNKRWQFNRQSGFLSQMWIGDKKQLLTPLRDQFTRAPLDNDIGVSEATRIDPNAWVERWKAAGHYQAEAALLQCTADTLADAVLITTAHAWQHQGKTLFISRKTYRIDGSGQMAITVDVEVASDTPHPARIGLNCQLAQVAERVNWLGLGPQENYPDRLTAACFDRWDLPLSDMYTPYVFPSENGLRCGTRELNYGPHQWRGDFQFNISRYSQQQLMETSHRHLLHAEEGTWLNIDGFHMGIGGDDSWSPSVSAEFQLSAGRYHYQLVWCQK
smiles,measurement,setting,value
c1ccc2c(c1)ccc1[nH]c3c(c12)CCCC3,IC50,Vero [1],3.39 µM (active)
same,CC50,Vero [2],> 25 µM (active)
O=C(CCl)N1CCCC1c1ccc2c(c1)OCCO2 (stereo unspecified),EC50,[3],14 µM (active)
same,EC50,[4],29.6 µM (active)
same,IC50,Jurkat,1.39 µM (active)
same,EC50,[5],1.14 µM (active)
same,AC50,[6],12.2 µM (active)
same,CC50,[7],11.6 µM (active)
same,EC50,H4,> 120 µM (not active)
same,EC50,Protein RecA,> 380 µM (inconclusive)
same,IC50,[8],> 80 µM (inactive)
CS(=O)(=O)N1CCc2cc(C(=O)Nc3ccccc3Cl)ccc21,IC50,HEK293 [9],> 67.5 µM (inactive)
same,IC50,[10],> 67.5 µM (inactive)
O=C(Cc1ccc(F)cc1)OCC(=O)c1cc2ccccc2o1,IC50,[11],23.9 µM (not active)
same,EC50,Beta-galactosidase,> 40 µM (inactive)
CN1CCN(C(=S)c2ccc(-c3cccc([N+](=O)[O-])c3)o2)CC1,EC50,[3],0.117 µM (active)
same,IC50,HEK293 [9],> 67.6 µM (inactive)
same,IC50,[10],> 67.6 µM (inactive)
same,EC50,[4],0.141 µM (active)
same,EC50,H4,2.4 µM (active)
COc1ccc(C(=O)NC2CCCc3c2cnn3-c2cccc(C)c2C)c(OC)n1 (stereo unspecified),IC50,Vero [1],3.8 µM (active)
same,AC50,[12],1.96 µM (active)
same,CC50,Vero [2],> 25 µM (active)
same,AC50,HEK293 [13],17.5 µM (active)
same,AC50,[14],3.27 µM (active)
same,AC50,[15],> 70 µM (inactive)
CCCCCn1c(=O)[nH]c2cc(C(=O)NCCCN3CCCCC3C)ccc2c1=O (stereo unspecified),IC50,[16],14.5 µM (active)
Cc1ccnc(SCc2cc(=O)c(OC(=O)c3ccco3)co2)n1,IC50,[16],15.8 µM (active)
O=C1Nc2ccccc2C1=Nc1ccc(F)cc1,IC50,[11],24.4 µM (not active)
same,EC50,Beta-galactosidase,> 40 µM (inactive)
O=C(C=Cc1ccccc1)c1cnc2ccccc2c1O,IC50,Vero [1],> 25 µM (active)
same,CC50,Vero [2],11 µM (active)
CCc1ccc(-c2nc(C[S+]([O-])CC(=O)NCc3ccco3)c(C)o2)cc1 (stereo unspecified),IC50,Jurkat,44.1 µM (inactive)
same,IC50,[8],> 80 µM (inactive)
Nc1c(-c2ccc(Cl)cc2)cnc2c(-c3ccccc3)cnn12,IC50,HEK293 [9],> 67.5 µM (inactive)
same,IC50,[10],> 67.5 µM (inactive)
